This is an account of results in patent US11358931B2, “Selective androgen receptor modulators (SARMs) and uses thereof” (priority 2007, dated 2022).

Entries after “also recorded” stand apart in the source; their conditions may differ.

Series [1] concerns ovariectomized mature female rat. Briefly: In vivo assay, ovariectomized mature female rats (12 weeks). As to conditions: for uterine weight to length ratio versus OVX controls: 0.03-3 mg/kg/day PO; for uterine weight to length ratio versus sham levels: high dose (3 mg/kg); for increase of gastrocnemius muscle mass / mean change in body weight: maximally effective dose 0.3 mg/kg PO; for clitoral weight, activity versus testosterone / clitoral gland weight versus sham: mid dose (0.3 mg/kg); for clitoral gland weight versus sham: 0.3 mg/kg. The text has this:
In animal models of osteoporosis, androgens increase bone density and strength in male rats (Wakely et al., J Bone & Mineral Research 6: 325-330 (1991) and Vandenput et al., Calcified Tissue International 70: 170-175 (2002)) and female rats (Tobias et al., Am J Physiology 267: E853-E859 (1994) and Coxam et al., Bone 19: 107-114 (1996)). The ovariectomized mature female rat model was used to assess the effects of orally administered compounds provided herein, such as Compound 102, on bone as well as other efficacy and side-effect endpoints including muscle mass, fat mass and clitoral gland weight.
In this assay, approximately three-month old rats were acclimated in a vivarium for one week. After acclimation, rats were anesthetized with Avertin and the ovariectomy (OVX) was performed using the dorsal approach. For the sham procedure, the surgical procedure was conducted per protocol, and the ovaries exteriorized but not removed. After recovery, no further experimental manipulations were performed for seven weeks, at which point the rats were scanned by dual energy x-ray absorptiometry and sorted into experimental groups based upon femoral bone mineral content (BMC). Three dosages of Compound 102 were tested (0.03, 0.3 and 3 mg/kg/day PO). For comparison, ostarine, a known non-steroidal SARM, was tested at the same dosages (0.03, 0.3 and 3 mg/kg/day PO). In addition, reference compounds estradiol and testosterone were administered. Estradiol was administered subcutaneously to one ovariectomized group at a dose of 0.1 mg/kg/day and testosterone propionate was administered subcutaneously to another ovariectomized group at a dose of 1 mg/kg/day.
Treatment continued once daily for 12 weeks, at which point animals were euthanized and tissues were collected for further analysis. Animals received subcutaneous injections of fluorochrome markers for bone histomorphometric analysis. Alizarian Red S was prepared as a 3% solution and given at a dose of 30 mg/kg at the time of the baseline scan. Calcein was administered 10 days and 3 days prior to necropsy.
After the 14th dose, approximately 250 μL venous blood was collected via percutaneous jugular puncture from the rats at 0, 0.5, 1, 2, 4 and 6 hours post-dosing. The blood samples were collected into lithium-heparin tubes (Becton Dickinson, Franklin Lakes, N.J.). Plasma fractions were collected for pharmacokinetic analysis. Approximately 24 hours after the last dose, rats were sacrificed by cardiac exsanguination, and blood was collected into serum separator tubes (Becton Dickinson), and the gastrocnemius muscle, plantaris muscle, uterus, clitoral glands, clitoris and inguinal fat pads were isolated, blotted and weighed individually. Uterine weight measurements can be inaccurate in surgically ovariectomized rats due to the potential loss of uterine tissue at the tips of the uterine horns during removal of the ovaries. To minimize this variability, the length of the uterine horns was measured and the uterine weight was reported normalized to uterine length. The left femur and lumbar vertebra L5 were wrapped in saline-soaked gauze and stored at −20° C. for biochemical analysis. The right femur and lumbar vertebrae L3-L4 were collected and stored in 70% ethanol for histomorphometry. The right tibia was collected in formalin for histological analysis. The left tibia was collected on dry ice and stored at −20° C. for measurement of alkaline phosphatase activity.
Compound 102 and ostarine individually were formulated in a solution containing 5% Tween-80 polysorbate, 90% PEG-400 polyethylene glycol, and 5% polyvinylpyrrolidone K30. The mixture was stirred and sonicated in a water bath for 30 minutes until the compound dissolved into a solution. After sonication, 1% carboxymethyl cellulose (CMC) in water was added to the solution in a 9:1 ratio (9 parts CMC/water solution to 1 part PEG-400/Tween-80/PVP). Compound 102 and ostarine were administered orally in a volume of 4 mL/kg. […]

Series [2] is described as follows: Toxicokinetics in Sprague Dawley rats (14-day oral study). It counts as in vivo, rat. The method, then:
A Sprague Dawley Rat model was used to study oral toxicity and toxicokinetics. Animals were assigned to groups by a stratified randomization scheme designed to achieve similar group mean body weights and the groups were randomly assigned to a dosing to provide control of bias.
All animals were dosed via oral gavage once daily for 14 days. The animals were evaluated for changes in clinical signs (mortality/morbidity observations, twice daily), cage side observations (general appearance and behavior), food consumption (quantitatively measured by weighing), body weights, clinical pathology indices including serum chemistry, hematology, coagulation and urinalysis, and other parameters. Blood samples were collected for toxicokinetics analysis from Groups 6-10 at various time points on Days 1 and 14 (Group 6 4 hours post dose; Groups 7-10 at 1, 4 and 12 hours or 2, 8 and 24 hours). The animals were fasted for at least 8 hours prior to blood collections for serum chemistry and urine collection. Serum chemistry parameters tested included alanine aminotransferase, total protein, aspartate aminotransferase, albumin, alkaline phosphatase, globulin, gamma-glutamyl-transferase, albumin/globulin ratio, lactate dehydrogenase, glucose, total bilirubin, cholesterol, urea nitrogen, triglycerides, creatinine, sodium, calcium, potassium, phosphorus and chloride. Hematology parameters analyzed included red blood cell count, reticulocyte count, hemoglobin concentration, red blood cell distribution width, mean corpuscular volume, mean platelet volume, mean corpuscular hemoglobin concentration, white blood cell count and differentials and mean corpuscular hemoglobin. Urinalysis parameters included color/character, ketones, specific gravity, bilirubin, pH, occult blood, protein, glucose and microscopics. Main study animals were euthanized on Day 15. At termination, a full necropsy was conducted and all tissues were collected, preserved, processes and examined microscopically from Groups 1 and 5, and target organs (liver and kidney) from Groups 2-4, by a veterinary pathologist certified by the American College of Veterinary Pathologists.

[3] abbreviates: OVX rats, high dose (3 mg/kg/day PO).
The mark [4] stands for this setting: OVX rats, low dose (0.03 mg/kg/day PO).
[5] abbreviates: OVX rats, 12 weeks, 3-point bending.

Turning to `N#Cc1ccc(N2CCC[C@@H]2[C@@H](O)C(F)(F)F)cc1C(F)(F)F` [Compound 102, R,R-4-(2-(1-Hydroxyl-2,2,2-trifluoroethyl)-pyrrolidinyl)-2-trifluoromethyl-benzonitrile], the “uterine weight to length ratio versus OVX controls” value in series [1] is listed as “increased uterine weight to length ratio above estrogen deficient OVX controls in a dose dependent manner”. In series [1] (OVX rats), the “uterine weight to length ratio versus sham levels” value is recorded as “significantly (P<0.01) increased above sham levels”; the “increase of gastrocnemius muscle mass” value turned out to be 17%; the “mean change in body weight” value is reported as “+66 grams”; the “clitoral weight, activity versus testosterone” value is “significantly less activity versus testosterone”. Besides, the “clitoral gland weight versus sham” value in series [1] (OVX rats) is recorded as “only slightly above the sham level; also recorded: did not quite achieve statistical significance versus sham”. For the same molecule, in series [1] (setting [3]), the clitoral gland weight entry was “increased clitoral gland weight” and the clitoral weight result is given as “significantly increased clitoral weight”. Further, the “increase of uterine weight to length ratio compared with ostarine” value in series [1] (OVX rats, low and mid dose, P<0.01) was “significantly less than ostarine”. For the same molecule, in series [1] (setting [4]), the clitoral gland weight result is recorded as “Neither Compound 102 nor ostarine affected”, the clitoral weight result is “did not affect clitoral weight” and the “uterine weight to length ratio versus sham operated controls” value is “significantly (P<0.01) less than sham operated controls”. Further, in series [1] (OVX rats, mid dose (0.3 mg/kg/day PO)), the “uterine weight to length ratio versus sham operated controls” value is listed as “significantly (P<0.01) less than sham operated controls”. In series [2] (Day 1), the “sex difference of systemic exposure” value was “higher systemic exposure in females across all dose levels”. Also, the “systemic exposure at 700 mg/kg/day” value in series [2] (Day 1, 700 mg/kg/day) is reported as “not increased, indicating that absorption was saturated”. In addition, the “systemic exposure versus dose” value in series [2] (Day 1, male and female rats) was “increased with increasing dose up to 300 mg/kg/day”. For the same molecule, in series [2] (Day 14 vs Day 1, more pronounced in high dose groups), the “effect of repeat administration on systemic exposure” value is given as “decreased systemic exposure”.
Regarding `C[C@](O)(COc1ccc(C#N)cc1)C(=O)Nc1ccc(C#N)c(C(F)(F)F)c1` [ostarine], the “uterine weight to length ratio versus OVX controls” value in series [1] was “increased uterine weight to length ratio above estrogen deficient OVX controls in a dose dependent manner”. For the same molecule, the “alkaline phosphatase activity from isolated tibiae” value in series [1] (OVX rats, 12 weeks) is “significantly increased”. In series [1] (setting [5]), the “whole femur bending stiffness” value was “slightly more effectively than Compound 102” and the “whole femur bending strength” value was “slightly less effectively than Compound 102”. For the same molecule, in series [1] (OVX rats, 12 weeks, histomorphometry), the cortical bone area result is “increased cortical bone area”. In series [1] (OVX rats, 12 weeks, versus vehicle-treated OVX controls), the serum osteocalcin entry was “significantly suppressed”. Besides, the “body weight gain from baseline compared to vehicle” value in series [1] (OVX rats, 12 weeks, Compound 102/ostarine 0.03, 0.3, 3 mg/kg/day PO, testosterone propionate 1 mg/kg/day s.c.) was “significantly increased weight gain compared to vehicle at the mid and high dose levels; also recorded: at the low dose there was no significant difference from vehicle”. Besides, the “inguinal fat pad weight” value in series [1] (OVX rats, 12 weeks, any dose, estradiol 0.1, testosterone propionate 1 mg/kg/day s.c.) is listed as “neither Compound 102 nor ostarine significantly affected inguinal fat pad weight at any dose”. In addition, in series [1] (OVX rats), the “uterine weight to length ratio versus sham levels” value was “significantly (P<0.01) increased above sham levels”; the “increase of gastrocnemius muscle mass” value amounted to 10%; the “mean change in body weight” value is “+65 grams”; the “clitoral weight, activity versus testosterone” value is recorded as “not significantly different from testosterone”. Moreover, the “clitoral gland weight versus sham” value in series [1] (OVX rats) is “only slightly above the sham level; also recorded: statistically significant (P<0.05)”. Also, in series [1] (setting [3]), the clitoral gland weight result is listed as “increased clitoral gland weight” and the clitoral weight entry is given as “significantly increased clitoral weight”. In addition, in series [1] (setting [4]), the clitoral gland weight result is given as “Neither Compound 102 nor ostarine affected”, the clitoral weight entry is listed as “did not affect clitoral weight” and the “uterine weight to length ratio versus sham operated controls” value was “significantly (P<0.01) less than sham operated controls”.
